According to patent US11260072B2, “MicroRNA-based methods and assays for osteocarcinoma” (3-D Matrix, Ltd., priority 2011, dated 2022):
Entries after “also recorded” stand apart in the source; their conditions may differ.

Tests used:
[1] = assessment of toxicity in LNA-treated tumor-bearing mice; type: in vivo; details: during the observation period
Experimental: (§1) Monitoring tumor growth, lung metastasis, and toxicity with/without LAN-anti-miR-133a. For the assessment of tumorigenicity between CD133^high and CD133^low HOS-Luc cells, NOD/SCID mice were injected with D-luciferin (150 mg/kg, Promega) by intraperitoneal injection. Ten minutes later, photons from firefly luciferase were counted using the IVIS imaging system (Xenogen Corp.) according to the manufacturer's instructions. Each experimental condition included 5 animals per group and monitoring once a week. For the evaluation of LNA-anti-miR-133a administration into spontaneous lung metastasis of osteosarcoma model mice, individual mice were injected with 10 mg/kg of LNA-anti-miR-133a or saline via the tail vain. LNA were injected on following days 4, 11, 18, 25, 32 postinoculation of 143B-Luc cells. Each experimental condition included 10 animals per group. The development of subsequent lung metastasis was monitored once a week in vivo by the bioluminescent imaging described above for 5 weeks. All data were analyzed using LivingImage software (version 2.50, Xenogen). On day 36, the primary tumor and lung in 5 mice of each group were resected at necropsy for their weight, bioluminescent, and histological analyses. The blood examination, weight of whole body as well as heart, liver, and skeletal muscle, and histopathological examination were performed for the assessment of toxicity.

[2] = test system: 143B-luc; test: spontaneous lung metastasis model of osteosarcoma (143B-luc implanted orthotopically into tibia); type: in vivo, athymic nude mice
Experimental: Tumor transplantation experiments. Animal experiments were performed in compliance with the guidelines of the Institute for Laboratory Animal Research, National Cancer Center Research Institute. Athymic nude mice or NOD/SCID mice (CLEA Japan) were purchased at 4 weeks of age and given at least 1 week to adapt to their new environment prior to tumor transplantation. On day 0, mice were anesthetized with 3% isoflurane and the right leg disinfected with 70% ethanol. Cells were aspirated into a 1 mL tuberculin syringe fitted with a 27-G needle. The needle was inserted through the cortex of the anterior tuberosity of the tibia with a rotating movement to avoid cortical fracture. Once the bone was traversed, the needle was inserted further to fracture the posterior cortex of the tibia. A 100 μL volume of solution containing freshly isolated CD133^high and CD133^low HOS-Luc (10^2, 10^3, 10^4, 10^5 cells per site) or 143B-Luc (1.5×10^6) was injected while slowly moving back the needle.
as §1
To extend the in vitro findings and to determine whether silencing of miR-133a could be an effective therapeutic option for osteosarcoma treatment, the effect of LNA-133a on a spontaneous lung metastasis model of osteosarcoma was examined. Experimentally, 1.5×10^6 cells of 143B transfected with firefly luciferase gene (143B-luc) were implanted orthotopically into the right proximal tibia of athymic nude mice. The implanted tumor growth and the presence of distant metastases were analyzed weekly for luciferase bioluminescence using an in vivo imaging system (IVIS). […] To assess the efficacy of the new treatment protocol, results were compared with three control groups (n=10 each): a saline control group, an LNA group, and a CDDP group. At 5 weeks, half the mice in each group were euthanized for further analysis; the remaining mice were monitored for survival.

[3] = test system: CD133^high SaOS2 and HOS cells; test: cell proliferation after LNA transfection; type: cell-based, human; details: day 4 after transfection
Experimental: (§2) Cell proliferation and cytotoxity assay. Cell proliferation rates and cell viability as an indicator for the relative sensitivity of the cells to doxorubicin, cisplatin, and methotrexate were determined using TetraColor ONE Cell proliferation Assay System (Seikagaku) according to the manufacturer's instructions. Cells growing in the logarithmic phase were seeded in 96-well plates (5×10^3/well), allowed to attach overnight, and then were treated with varying doses of doxorubicin (Sigma), cisplatin (Alexis), and methotrexate (Sigma) for 72 h. Triplicate wells were used for each treatment group. Absorbance was measured at 450 nm with a reference wavelength at 650 nm on EnVision (Wallac). The relative number of viable cells was expressed as the percent of cell viability.
(§3) Transfection with synthetic miRNAs, LNAs, and siRNAs. […]

[4] = test system: CD133^high SaOS2 and HOS populations; test: invasion assay after LNA transfection; type: cell-based, human
Experimental: Invasion assay. Invasion assays were performed by using 24-well BD BioCoat Invasion Chambers with Matrigel (Becton-Dickinson). 1×10^5 cells, suspended in 500 μL DMEM or RPMI 1640 medium without FBS, were added to the upper chamber, and DMEM or RPMI 1640 medium with 10% FBS was added to the lower chamber. After incubation for 24 h or 36 h, the cells on the upper surface of the filter were completely removed by wiping them with cotton swabs. The filters were fixed in methanol and stained with 1% toluidine blue in 1% sodium tetraborate (Sysmex). Filters were then mounted onto slides, and cells on lower surfaces were counted. Each assay was performed in triplicate.
(§4) Transfection with synthetic miRNAs, LNAs, and siRNAs. Synthetic hsa-miRs (Pre-miR-hsa-miR-1, -10b, -133a, and negative control (NC; Applied Biosystems, Table 2) and locked nucleic acids (LNAs) (LNA-1, -10b, -133a, and negative control, Exiqon, Table 3) were transfected into each type of cells at 30 nM each (final concentration) using DharmaFECT 1(GE Healthcare). Synthetic siRNAs (Bonac corporation, Table 4) were transfected into each type of cells at 100 nM each (final concentration) using DharmaFECT 1 (GE Healthcare). After 24 hours of incubation, cells were treated with chemotherapeutic agents for cytotoxicity assay or reseeded into invasion chambers for invasion assay.

[5] = test system: SGMS2; test: SGMS2 mRNA in 143B-luc tumors of LNA-133a-treated mice; type: in vivo, human
Excerpt: (§5) RNA isolation and quantitative real-time RT-PCR of mRNAs and miRNAs. Total RNA was purified from cells and tumor tissues with an RNeasy Mini Kit and RNase-Free DNase Set (QIAGEN). For quantitative polymerase chain reaction (qPCR) of mRNAs, cDNA was synthesized using High-Capacity cDNA Reverse Transcription Kit (Applied Biosystems). For each qPCR reaction, equal amounts of cDNA were mixed with Platinum SYBER Green qPCR SuperMix (Invitrogen) and specific primers (Table 1). Gene expression levels were normalized by beta actin (ACTB) or glyceraldehyde 3-phosphate dehydrogenase (GAPDH). For qPCR of miRNAs, miRNA was converted to cDNA using the TaqMan MicroRNA Reverse Transcription Kit (Applied Biosystems). RNU6B small nuclear RNA was amplified as an internal control. qPCR was performed using each miRNA-specific probe included with the TaqMan MicroRNA Assay on a Real-Time PCR System 7300 and SDS software (Applied Biosystems).
Monitoring tumor growth, lung metastasis, and toxicity with/without LAN-anti-miR-133a. […] Ten minutes later, photons from firefly luciferase were counted using the IVIS imaging system (Xenogen Corp.) according to the manufacturer's instructions. […] The development of subsequent lung metastasis was monitored once a week in vivo by the bioluminescent imaging described above for 5 weeks. All data were analyzed using LivingImage software (version 2.50, Xenogen). […]

[6] = test system: CD133^high cells; test: qPCR of genes associated with stemness, drug resistance and metastasis after LNA transfection; type: cell-based, human; details: β-actin internal control
Excerpt: as §5, §3

[7] = test system: miR-133a; test: silencing of miR-133a in LNA-transfected CD133high cells (real-time RT-PCR); type: cell-based, human; details: CD133high SaOS2 and HOS cells, LNA 30 nM
Excerpt: as §5, §3

[8] = test system: CD133^high cells; test: apoptotic cell count (Hoechst staining) after LNA transfection; type: cell-based, human; details: compared to control CD133high cells; CDDP 5 μM, 48 h
[9] = test system: miR-133a; test: miR-133a expression in 143B-luc tumors (qRT-PCR); type: in vivo, human; details: vs saline-treated mice
Excerpt: as §5, with “RNU6B small nuclear RNA was amplified as an internal control. qPCR was performed using each miRNA-specific probe included with the TaqMan MicroRNA Assay on a Real-Time PCR System 7300 and SDS software (Applied Biosystems).” left out
To extend the in vitro findings and to determine whether silencing of miR-133a could be an effective therapeutic option for osteosarcoma treatment, the effect of LNA-133a on a spontaneous lung metastasis model of osteosarcoma was examined. […] The implanted tumor growth and the presence of distant metastases were analyzed weekly for luciferase bioluminescence using an in vivo imaging system (IVIS). […] At 5 weeks, half the mice in each group were euthanized for further analysis; the remaining mice were monitored for survival.

[10] = test system: CD133^high cells; test: cytotoxicity assay (drug sensitivity) after LNA transfection; type: cell-based, human; details: DOX 0.4 μM or CDDP 5 μM, 48 h, 24 h after transfection
Experimental: as §2, with “Cells growing in the logarithmic phase were seeded in 96-well plates (5×10^3/well), allowed to attach overnight, and then were treated with varying doses of doxorubicin (Sigma), cisplatin (Alexis), and methotrexate (Sigma) for 72 h.” left out
as §4

With “LNA-133a: locked nucleic acid antisense to hsa-miR-133a-1, 5′-CAGCTGGTTGAAGGGGACCAA-3′ (Exiqon) (LNA-modified oligonucleotide from Exiqon, pattern not given here)” as the substance, how does the “toxic effects on various tissue including heart, liver, and skeletal muscle” value [1] read?
Its value is “minimal toxic effects”.

What about the “Luminescence of lung (mean)” value ([2]; IVIS bioluminescence) of the same substance?
Its value is 1744.

And the “Lung metastasis (mice with metastasis / mice in group)” value ([2]; day 35)?
Its value is 7/10.

And the “Tumor weight (mean)” value ([2]; day 36, LNA-133a 10 mg kg-1 i.v., CDDP i.p.)?
The value was 3.143 g.

What about the proliferation rate [3] of the same substance?
Its proliferation rate is “suppressed in proliferation rate to the same level of CD133^low cells transfected with LNA-NC”.

And the invasiveness [4]?
The invasiveness was “decreased the invasiveness”.

And the “expression of mRNA for SGMS2” value [5]?
Its value is “increased expression”.

What about the “expression of the molecules associated with CD133high phenotypes” value [6] of the same substance?
Its value is “decreased”.

And the “efficacy for the silencing of miR-133a” value [7]?
The value was “confirmed; also recorded: knock-down”.

What about the “apoptotic cell death rate” value [8] of the same substance?
Its value is “significantly higher apoptotic cell death rate”.

What about the “expression of miR-133a of tumors” value [9] of the same substance?
Its value is “reduced miR-133a levels; also recorded: decreased”.

What about the “sensitivity to DOX and CDDP (cell viability)” value [10] of the same substance?
Its value is “enhanced sensitivity to DOX and CDDP”.
